Assay results published in PMC6128713 (Saudi Pharmaceutical Journal : SPJ, 2018).
Several values for one entry are separate records, joined by “and”; a condition that tells them apart may be missing. Identical values can stand only once. Like-named read-outs stand apart in the source and are kept apart here.

Assays:
[1] = assay type: physicochemical
[2] = tested on: glutamate-induced 45Ca2+ uptake into synaptosomes of rat brain cortex; experiment: Effect on glutamate-induced 45Ca2+ uptake into synaptosomes of rat brain cortex; assay type: biochemical, Wistar rats; settings: for Percentage 45Ca2+ of Control (Control – 100%): 200 μM glutamate, 5 min, 37 °C; for overall inhibiting activity on calcium ion uptake, in words: whole concentration range 0.01–100 μM

COc1ccc2c(c1)c1c(n2CCc2n[nH]c(=S)n2C)CCN(C)C1 [III, 5-[2-(8-Methoxy-2-methyl-1,2,3,4-tetrahydropyrido[4,3-b]indol-5-yl)ethyl]-4-methyl-2,4-dihydro[1,2,4]triazole-3-thione]
mole fraction solubility (x) ([1]; 1-octanol, 293.15 K): 0.71 x · 10^4 | A, parameter of the correlation equation lnx=A-B/T ([1]; 1-octanol, 293.15–313.15 K): 7.10 ± 0.15 | B, parameter of the correlation equation lnx=A-B/T ([1]; 1-octanol, 293.15–313.15 K): 4876 ± 47 | mole fraction solubility (x) ([1]; 1-octanol, 298.15 K): 0.93 x · 10^4 | ΔGsol0, standard molar dissolution Gibbs energy ([1]; 1-octanol, 298.15 K): 5.5 kcal/mol | ΔHsol0, standard molar dissolution enthalpy ([1]; 1-octanol, 298.15 K): 9.68 kcal/mol | ΔSsol0, standard molar dissolution entropy ([1]; 1-octanol, 298.15 K): 58.7 J/mol⋅K | mole fraction solubility (x) ([1]; 1-octanol, 303.15 K): 1.22 x · 10^4 | mole fraction solubility (x) ([1]; 1-octanol, 308.15 K): 1.61 x · 10^4 | mole fraction solubility (x) ([1]; 1-octanol, 313.15 K): 2.05 x · 10^4 | mole fraction solubility (x) ([1]; Buffer pH 7.4, 293.15 K): 5.57 x · 10^6 | A, parameter of the correlation equation lnx=A-B/T ([1]; Buffer pH 7.4, 293.15–313.15 K): −2.82 ± 0.09 | B, parameter of the correlation equation lnx=A-B/T ([1]; Buffer pH 7.4, 293.15–313.15 K): 2719 ± 29 | mole fraction solubility (x) ([1]; Buffer pH 7.4, 298.15 K): 6.55 x · 10^6 | ΔGsol0, standard molar dissolution Gibbs energy ([1]; Buffer pH 7.4, 298.15 K): 7.07 kcal/mol | ΔHsol0, standard molar dissolution enthalpy ([1]; Buffer pH 7.4, 298.15 K): 5.4 kcal/mol | ΔSsol0, standard molar dissolution entropy ([1]; Buffer pH 7.4, 298.15 K): –23.4 J/mol⋅K | mole fraction solubility (x) ([1]; Buffer pH 7.4, 303.15 K): 7.53 x · 10^6 | mole fraction solubility (x) ([1]; Buffer pH 7.4, 308.15 K): 8.77 x · 10^6 | mole fraction solubility (x) ([1]; Buffer pH 7.4, 313.15 K): 10.09 x · 10^6 | mole fraction solubility (x) ([1]; Hexane, 293.15 K): 3.30 x · 10^5 | A, parameter of the correlation equation lnx=A-B/T ([1]; Hexane, 293.15–313.15 K): −2.93 ± 0.14 | B, parameter of the correlation equation lnx=A-B/T ([1]; Hexane, 293.15–313.15 K): 2165 ± 43 | mole fraction solubility (x) ([1]; Hexane, 298.15 K): 3.71 x · 10^5 | ΔGsol0, standard molar dissolution Gibbs energy ([1]; Hexane, 298.15 K): 6.05 kcal/mol | ΔHsol0, standard molar dissolution enthalpy ([1]; Hexane, 298.15 K): 4.3 kcal/mol | ΔSsol0, standard molar dissolution entropy ([1]; Hexane, 298.15 K): -24.5 J/mol⋅K | mole fraction solubility (x) ([1]; Hexane, 303.15 K): 4.18 x · 10^5 | mole fraction solubility (x) ([1]; Hexane, 308.15 K): 4.68 x · 10^5 | mole fraction solubility (x) ([1]; Hexane, 313.15 K): 5.31 x · 10^5 | Percentage 45Ca2+ of Control (Control – 100%) ([2]; compound 0.01 μM): 86.7 ± 4.0% | Percentage 45Ca2+ of Control (Control – 100%) ([2]; compound 0.1 μM): 57.5 ± 8.3% | Percentage 45Ca2+ of Control (Control – 100%) ([2]; compound 0.5 μM): 83.0 ± 7.9% | Percentage 45Ca2+ of Control (Control – 100%) ([2]; compound 1 μM): 83.4 ± 12.7% | Percentage 45Ca2+ of Control (Control – 100%) ([2]; compound 5 μM): 86.6 ± 4.5% | Percentage 45Ca2+ of Control (Control – 100%) ([2]; compound 10 μM): 85.8 ± 15.2% | Percentage 45Ca2+ of Control (Control – 100%) ([2]; compound 50 μM): 93.1 ± 12.8% | Percentage 45Ca2+ of Control (Control – 100%) ([2]; compound 100 μM): 96.1 ± 13.2% | maximal effect on calcium ion uptake (inhibiting ability) ([2]; concentration of 0.1 μM): 42.5% | inhibition of glutamate-induced calcium ion uptake ([2]; concentration of 1 μM): ~17% | overall inhibiting activity on calcium ion uptake, in words [2]: highest inhibiting activity within a wide concentration range (0.01–10 μM)

CN1CCc2c(c3cc(Cl)ccc3n2CCc2n[nH]c(=S)n2C)C1 [V, 5-[2-(8-Chloro-2-methyl-1,2,3,4-tetrahydropyrido[4,3-b]indol-5-yl)ethyl]-4-methyl-2,4-dihydro[1,2,4]triazole-3-thione]
mole fraction solubility (x) ([1]; 1-octanol, 293.15 K): 1.15 x · 10^4 | A, parameter of the correlation equation lnx=A-B/T ([1]; 1-octanol, 293.15–313.15 K): 6.03 ± 0.15 | B, parameter of the correlation equation lnx=A-B/T ([1]; 1-octanol, 293.15–313.15 K): 4423 ± 47 | mole fraction solubility (x) ([1]; 1-octanol, 298.15 K): 1.47 x · 10^4 | ΔGsol0, standard molar dissolution Gibbs energy ([1]; 1-octanol, 298.15 K): 5.23 kcal/mol | ΔHsol0, standard molar dissolution enthalpy ([1]; 1-octanol, 298.15 K): 8.8 kcal/mol | ΔSsol0, standard molar dissolution entropy ([1]; 1-octanol, 298.15 K): 50.0 J/mol⋅K | mole fraction solubility (x) ([1]; 1-octanol, 303.15 K): 1.91 x · 10^4 | mole fraction solubility (x) ([1]; 1-octanol, 308.15 K): 2.42 x · 10^4 | mole fraction solubility (x) ([1]; 1-octanol, 313.15 K): 3.01 x · 10^4 | mole fraction solubility (x) ([1]; Buffer pH 7.4, 293.15 K): 2.66 x · 10^6 | A, parameter of the correlation equation lnx=A-B/T ([1]; Buffer pH 7.4, 293.15–313.15 K): 0.12 ± 0.16 | B, parameter of the correlation equation lnx=A-B/T ([1]; Buffer pH 7.4, 293.15–313.15 K): 3799 ± 50 | mole fraction solubility (x) ([1]; Buffer pH 7.4, 298.15 K): 3.25 x · 10^6 | ΔGsol0, standard molar dissolution Gibbs energy ([1]; Buffer pH 7.4, 298.15 K): 7.34 kcal/mol | ΔHsol0, standard molar dissolution enthalpy ([1]; Buffer pH 7.4, 298.15 K): 7.55 kcal/mol | ΔSsol0, standard molar dissolution entropy ([1]; Buffer pH 7.4, 298.15 K): 2.9 J/mol⋅K | mole fraction solubility (x) ([1]; Buffer pH 7.4, 303.15 K): 4.01 x · 10^6 | mole fraction solubility (x) ([1]; Buffer pH 7.4, 308.15 K): 4.95 x · 10^6 | mole fraction solubility (x) ([1]; Buffer pH 7.4, 313.15 K): 6.07 x · 10^6 | mole fraction solubility (x) ([1]; Hexane, 293.15 K): 5.42 x · 10^4 | A, parameter of the correlation equation lnx=A-B/T ([1]; Hexane, 293.15–313.15 K): 2.45 ± 0.12 | B, parameter of the correlation equation lnx=A-B/T ([1]; Hexane, 293.15–313.15 K): 2922 ± 38 | mole fraction solubility (x) ([1]; Hexane, 298.15 K): 6.39 x · 10^4 | ΔGsol0, standard molar dissolution Gibbs energy ([1]; Hexane, 298.15 K): 4.35 kcal/mol | ΔHsol0, standard molar dissolution enthalpy ([1]; Hexane, 298.15 K): 5.81 kcal/mol | ΔSsol0, standard molar dissolution entropy ([1]; Hexane, 298.15 K): 13.1 J/mol⋅K | mole fraction solubility (x) ([1]; Hexane, 303.15 K): 7.47 x · 10^4 | mole fraction solubility (x) ([1]; Hexane, 308.15 K): 8.87 x · 10^4 | mole fraction solubility (x) ([1]; Hexane, 313.15 K): 10.22 x · 10^4 | Percentage 45Ca2+ of Control (Control – 100%) ([2]; compound 0.01 μM): 103.5 ± 7.7% | Percentage 45Ca2+ of Control (Control – 100%) ([2]; compound 0.1 μM): 95.3 ± 1.0% | Percentage 45Ca2+ of Control (Control – 100%) ([2]; compound 0.5 μM): 102.2 ± 6.3% | Percentage 45Ca2+ of Control (Control – 100%) ([2]; compound 1 μM): 94.5 ± 4.7% | Percentage 45Ca2+ of Control (Control – 100%) ([2]; compound 5 μM): 80.7 ± 10.5% | Percentage 45Ca2+ of Control (Control – 100%) ([2]; compound 10 μM): 75.6 ± 10.0% | Percentage 45Ca2+ of Control (Control – 100%) ([2]; compound 50 μM): 93.3 ± 11.0% | Percentage 45Ca2+ of Control (Control – 100%) ([2]; compound 100 μM): 135.5% and 135.5 ± 9.4% | inhibition of glutamate-induced calcium ion uptake, most efficient ([2]; concentration of 5–10 μM): ~20% | overall inhibiting activity on calcium ion uptake, in words [2]: weak inhibitors of calcium ion uptake
